Results from patent US20150144845A1, “SOLVENT OR SOLVENT COMPOSITION FOR ORGANIC TRANSISTOR PRODUCTION” (DAICEL CORPORATION, priority 2012, published 2015).
Where two headings read alike, the source gives them in different places.

Tests used:
[1] = Visual solubility of DPh-BTBT in solvent for organic transistor production
Procedure: (§1) The resulting mixture was heated in a nitrogen atmosphere under a light-shielding condition at 100° C. for about 6 hours, preparing a composition for organic transistor production. With respect to the resulting composition for organic transistor production, the solubility of the organic semiconductor material was observed. Herein, the solubility was visually evaluated, and a case where no insoluble material was observed was rated as “∘: dissolution”, and a case where an insoluble material was observed was rated as “x: not dissolution”. The same shall apply hereafter.
(§2) The resulting mixture was heated in a nitrogen atmosphere under a light-shielding condition at 100° C. for about 2 hours, preparing a composition for organic transistor production. With respect to the resulting composition for organic transistor production, the solubility of the organic semiconductor material was observed.

[2] = Visual solubility of pentacene in solvent for organic transistor production
Procedure: as §1

[3] = Visual solubility of DNTT in solvent for organic transistor production
Procedure: as §1, §2

[4] = Visual solubility of Rubrene in solvent for organic transistor production; type: physicochemical; details: summary of Examples, 100° C.
Procedure: as §1
Rubrene (compound represented by formula (2-1)) (produced by Tokyo Chemical Industry Co., Ltd.) was used as an organic semiconductor material, and each solvent for organic transistor production shown in Table 2 was used under an environment of 20° C., providing a mixture including the organic semiconductor material in a concentration of 4.00% by weight to 5.00% by weight. The resulting mixture was heated in a nitrogen atmosphere under a light-shielding condition at 100° C. for about 2 hours, preparing a composition for organic transistor production. With respect to the resulting composition for organic transistor production, the solubility of the organic semiconductor material was observed.

CN1CCN(C)C1=O [1,3-dimethyl-2-imidazolidinone]
solubility of DPh-BTBT in the solvent compared with tetralin and 1,2,4-trichlorobenzene [1]: better
solubility of pentacene in the solvent compared with tetralin and 1,2,4-trichlorobenzene [2]: better
solubility of DNTT in the solvent compared with tetralin and 1,2,4-trichlorobenzene [3]: better
solubility of Rubrene in the solvent compared with tetralin and 1,2,4-trichlorobenzene [4]: excellent

CN1CCCN(C)C1=O [1,3-dimethyl-3,4,5,6-tetrahydro-2(1H)-pyrimidinone]
solubility of DPh-BTBT in the solvent compared with tetralin and 1,2,4-trichlorobenzene ([1]; summary of Examples, 100° C.): better
solubility of pentacene in the solvent compared with tetralin and 1,2,4-trichlorobenzene ([2]; summary of Examples, 100° C.): better
solubility of DNTT in the solvent compared with tetralin and 1,2,4-trichlorobenzene ([3]; summary of Examples, 100° C.): better
solubility of Rubrene in the solvent compared with tetralin and 1,2,4-trichlorobenzene [4]: excellent
